Source: ChEMBL document CHEMBL4837201, “Increased antibacterial properties of indoline-derived phenolic Mannich bases” (Eur J Med Chem, 2021)
≈ marks a conversion by molar mass, not a printed value.

Tests used:
Enterococcus faecalis [1] = experiment: Antibacterial activity against Enterococcus faecalis ATCC 29212 assessed as inhibition of bacterial growth incubated for 16 to 24 hrs by broth microdilution method; format: functional; details: time 16-24 hrs
Staphylococcus aureus [2] = experiment: Antibacterial activity against Staphylococcus aureus ATCC 6538 assessed as inhibition of bacterial growth incubated for 16 to 24 hrs by broth microdilution method; format: functional; details: time 16-24 hrs
Staphylococcus aureus [3] = experiment: Antibacterial activity against methicillin-sensitive Staphylococcus aureus ATCC 25923 assessed as inhibition of bacterial growth incubated for 16 to 24 hrs by broth microdilution method; format: functional; details: time 16-24 hrs
[4] = system: Staphylococcus epidermidis; experiment: Antibacterial activity against Staphylococcus epidermidis ATCC 12228 assessed as inhibition of bacterial growth incubated for 16 to 24 hrs by broth microdilution method; format: functional; details: time 16-24 hrs
Bacillus subtilis = experiment: Antibacterial activity against Bacillus subtilis ATCC 6633 assessed as inhibition of bacterial growth incubated for 16 to 24 hrs by broth microdilution method; format: functional; details: time 16-24 hrs
Staphylococcus aureus [5] = experiment: Antibacterial activity against methicillin-resistant Staphylococcus aureus CIP106760 assessed as inhibition of bacterial growth incubated for 16 to 24 hrs by broth microdilution method; format: functional; details: time 16-24 hrs
Enterococcus faecalis [6] = experiment: Antibacterial activity against vancomycin-resistant Enterococcus faecalis ATCC 51299 assessed as inhibition of bacterial growth incubated for 16 to 24 hrs by broth microdilution method; format: functional; details: time 16-24 hrs
MRC5 = experiment: Cytotoxicity against human MRC5 cells assessed as reduction in cell viability measured after 24 hrs by MTT assay; format: cell-based; details: MRC5, 24 h
Listeria monocytogenes = experiment: Antibacterial activity against Listeria monocytogenes assessed as inhibition of bacterial growth incubated for 16 to 24 hrs by broth microdilution method; format: functional; details: time 16-24 hrs
HaCaT [7] = experiment: (§1) Cytotoxicity against human HaCaT cells assessed as cell viability at 50 uM after 24 hrs by MTT assay; format: cell-based; details: hacat, 24 h, 50 µM
Enterococcus faecium = experiment: Antibacterial activity against Enterococcus faecium assessed as inhibition of bacterial growth incubated for 16 to 24 hrs by broth microdilution method; format: functional; details: time 16-24 hrs
Staphylococcus aureus [8] = experiment: Antibacterial activity against Staphylococcus aureus assessed as inhibition of bacterial growth incubated for 16 to 24 hrs by broth microdilution method; format: functional; details: time 16-24 hrs
HaCaT [9] = experiment: Cytotoxicity against human HaCaT cells assessed as reduction in cell viability at 50 uM after 24 hrs by MTT assay; format: cell-based
[10] = system: Staphylococcus epidermidis; experiment: Antibacterial activity against Staphylococcus epidermidis assessed as inhibition of bacterial growth incubated for 16 to 24 hrs by broth microdilution method; format: functional; details: time 16-24 hrs
[11] = Toxicity in Artemia salina assessed as mortality at 10 ug/ml measured after 24 hrs; details: at 10 µg/mL
[12] = Toxicity in Saccharomyces cerevisiae ATCC 2601 assessed as reduction in cell viability measured after 24 hrs by microdilution method; details: Saccharomyces cerevisiae, Saccharomyces cerevisiae ATCC 2601 cells
Enterococcus faecalis [13] = experiment: Antibacterial activity against Enterococcus faecalis assessed as inhibition of bacterial growth incubated for 16 to 24 hrs by broth microdilution method; format: functional; details: time 16-24 hrs
[14] = as §1; format: cell-based; details: HaCaT cells, read-out: Activity
[15] = Antioxidant activity assessed as DPPH radical scavenging activity at 10 ug/ml by DPPH assay relative to control; format: functional; details: dose 10.0 µg/ml

Structure (SMILES) | MBC (Enterococcus faecalis [1]) [µM] | MIC (Enterococcus faecalis [1]) [µM] | MBC (Staphylococcus aureus [2]) [µM] | MIC (Staphylococcus aureus [2]) [µM] | MBC (Staphylococcus aureus [3]) [µM] | MIC (Staphylococcus aureus [3]) [µM] | MBC [4] [µM] | MIC [4] [µM] | MBC (Bacillus subtilis) [µM] | MIC (Bacillus subtilis) [µM] | MBC (Staphylococcus aureus [5]) [µM] | MIC (Staphylococcus aureus [5]) [µM] | MBC (Enterococcus faecalis [6]) [µM] | MIC (Enterococcus faecalis [6]) [µM] | Activity (HaCaT [9]) | IC50 at 24 h [12] [µM] | further results
Cc1ccccc1C(c1cc([N+](=O)[O-])ccc1O)N1CCc2c(C#N)cccc21 (stereo not given) | 81.1 (≈ 31.3 µg/mL) | 5.07 (≈ 1.95 µg/mL) | 20.3 (≈ 7.82 µg/mL) | 5.07 (≈ 1.95 µg/mL) | 81.1 (≈ 31.3 µg/mL) | 10.1 (≈ 3.89 µg/mL) | 18.9 (≈ 7.28 µg/mL) | 2.36 (≈ 0.91 µg/mL) | 18.9 (≈ 7.28 µg/mL) | 4.71 (≈ 1.82 µg/mL) | 20.3 (≈ 7.82 µg/mL) | 5.07 (≈ 1.95 µg/mL) | 162 (≈ 62.4 µg/mL) | 10.1 (≈ 3.89 µg/mL) |  |  | 
O=[N+]([O-])c1ccc(O)c(C(c2ccc(C(F)(F)F)cc2)N2CCc3ccccc32)c1 (stereo not given) | 9.43 (≈ 3.91 µg/mL) | 1.18 (≈ 0.489 µg/mL) | 2.36 (≈ 0.978 µg/mL) | 1.18 (≈ 0.489 µg/mL) | 37.7 (≈ 15.6 µg/mL) | 1.18 (≈ 0.489 µg/mL) | < 1.18 | < 1.18 | < 1.18 | < 1.18 | 1.18 (≈ 0.489 µg/mL) | 1.18 (≈ 0.489 µg/mL) | 151 (≈ 62.6 µg/mL) | 1.18 (≈ 0.489 µg/mL) | Non-Toxic | > 100 | IC50 (MRC5): 1.7 µM; MIC (Listeria monocytogenes): 1.18 µM (≈ 0.489 µg/mL); Activity (HaCaT [7]): Non-Toxic; MIC (Enterococcus faecium): 2.36 µM (≈ 0.978 µg/mL); MIC (Staphylococcus aureus [8]): 1.18 µM (≈ 0.489 µg/mL); MIC [10]: 1.18 µM (≈ 0.489 µg/mL); mortality at 24 h, 10 ug/ml [11]: 8%; MIC (Enterococcus faecalis [13]): 2.36 µM (≈ 0.978 µg/mL)
Cc1ccccc1C(c1cc([N+](=O)[O-])ccc1O)N1CCc2cc([N+](=O)[O-])ccc21 (stereo not given) | 9.64 (≈ 3.91 µg/mL) | 1.2 (≈ 0.486 µg/mL) | 9.64 (≈ 3.91 µg/mL) | 2.41 (≈ 0.977 µg/mL) | 38.6 (≈ 15.6 µg/mL) | 1.2 (≈ 0.486 µg/mL) | 4.71 (≈ 1.91 µg/mL) | < 1.18 | 2.36 (≈ 0.957 µg/mL) | < 1.18 | 4.82 (≈ 1.95 µg/mL) | 1.2 (≈ 0.486 µg/mL) | 154 (≈ 62.4 µg/mL) | 2.41 (≈ 0.977 µg/mL) |  | 121 | mortality at 24 h, 10 ug/ml [11]: 3%
CN[C@H](CC(C)C)C(=O)N[C@H]1C(=O)N[C@@H](CC(N)=O)C(=O)N[C@H]2C(=O)N[C@H]3C(=O)N[C@H](C(=O)N[C@H](C(=O)O)c4cc(O)cc(O)c4-c4cc3ccc4O)[C@H](O)c3ccc(c(Cl)c3)Oc3cc2cc(c3O[C@@H]2O[C@H](CO)[C@@H](O)[C@H](O)[C@H]2O[C@H]2C[C@](C)(N)[C@H](O)[C@H](C)O2)Oc2ccc(cc2Cl)[C@H]1O [VANCOMYCIN] |  | 3.07 (≈ 4.45 µg/mL) |  | 1.35 (≈ 1.96 µg/mL) |  | 5.4 (≈ 7.83 µg/mL) |  | 1.95 (≈ 2.83 µg/mL) |  | 1.95 (≈ 2.83 µg/mL) |  | < 1.5 |  | < 5.83 |  |  | 
Cc1ccccc1C(c1cc([N+](=O)[O-])ccc1O)N1CCc2cc(Cl)ccc21 (stereo not given) | 9.89 (≈ 3.91 µg/mL) | 1.24 (≈ 0.49 µg/mL) | 4.95 (≈ 1.95 µg/mL) | 1.24 (≈ 0.49 µg/mL) | 39.6 (≈ 15.6 µg/mL) | 2.47 (≈ 0.975 µg/mL) | 2.36 (≈ 0.932 µg/mL) | < 1.18 | 4.71 (≈ 1.86 µg/mL) | < 1.18 | 2.47 (≈ 0.975 µg/mL) | 1.24 (≈ 0.49 µg/mL) | 158 (≈ 62.4 µg/mL) | 2.47 (≈ 0.975 µg/mL) | Toxic | > 100 | viability at 24 h, 50 µM [14]: 3%
O=[N+]([O-])c1ccc2c(c1)CCN2C(c1ccc(C(F)(F)F)cc1)c1cc([N+](=O)[O-])ccc1O (stereo not given) | 8.89 (≈ 4.08 µg/mL) | 1.11 (≈ 0.51 µg/mL) |  |  | 35.6 (≈ 16.4 µg/mL) | 2.22 (≈ 1.02 µg/mL) | 2.36 (≈ 1.08 µg/mL) | < 1.18 | 18.9 (≈ 8.68 µg/mL) | 9.43 (≈ 4.33 µg/mL) | 1.11 (≈ 0.51 µg/mL) | 1.11 (≈ 0.51 µg/mL) | 142 (≈ 65.2 µg/mL) | 4.45 (≈ 2.04 µg/mL) | Toxic | 292 | IC50 (MRC5): 5.8 µM
Cc1ccc(C(c2cc([N+](=O)[O-])ccc2O)N2CCc3cc([N+](=O)[O-])ccc32)cc1 (stereo not given) | 9.64 (≈ 3.91 µg/mL) | 1.2 (≈ 0.486 µg/mL) | 77.1 (≈ 31.3 µg/mL) | 19.3 (≈ 7.82 µg/mL) | 38.6 (≈ 15.6 µg/mL) | 1.2 (≈ 0.486 µg/mL) | 37.7 (≈ 15.3 µg/mL) | 18.9 (≈ 7.66 µg/mL) | 37.7 (≈ 15.3 µg/mL) | 18.9 (≈ 7.66 µg/mL) | 4.82 (≈ 1.95 µg/mL) | 1.2 (≈ 0.486 µg/mL) | 154 (≈ 62.4 µg/mL) | 2.41 (≈ 0.977 µg/mL) |  | > 100 | MIC (Listeria monocytogenes): 9.64 µM (≈ 3.91 µg/mL); viability at 24 h, 50 µM [14]: 94%; Activity [15]: 8%; MIC (Enterococcus faecium): 9.64 µM (≈ 3.91 µg/mL); MIC (Staphylococcus aureus [8]): 9.64 µM (≈ 3.91 µg/mL); MIC [10]: 9.64 µM (≈ 3.91 µg/mL); MIC (Enterococcus faecalis [13]): 19.3 µM (≈ 7.81 µg/mL)
Cc1ccc(C(c2cc([N+](=O)[O-])ccc2O)N2CCc3c(C#N)cccc32)cc1 (stereo not given) | 42.9 (≈ 16.5 µg/mL) | 2.68 (≈ 1.03 µg/mL) | 40.5 (≈ 15.6 µg/mL) | 20.3 (≈ 7.82 µg/mL) | 85.8 (≈ 33.1 µg/mL) | 10.7 (≈ 4.12 µg/mL) | 302 (≈ 116 µg/mL) | 37.8 (≈ 14.6 µg/mL) | 9.43 (≈ 3.63 µg/mL) | 4.71 (≈ 1.82 µg/mL) | 21.4 (≈ 8.25 µg/mL) | 2.68 (≈ 1.03 µg/mL) | 172 (≈ 66.3 µg/mL) | 5.36 (≈ 2.07 µg/mL) |  |  | Activity [15]: 19%
